# Reference: patent publication US20250092056A1, “URACIL DERIVATIVES HAVING VIRUS REPLICATION INHIBITORY ACTIVITY AND PHARMACEUTICAL COMPOSITION COMPRISING THE SAME” (Shionogi & Co., Ltd., priority 2022, published 2025)
# Where two headings read alike, the source gives them in different places.
# Tests used:
# [1] = biological target: Recombinant SARS-CoV-2 3CL Protease (Severe acute respiratory syndrome coronavirus 2 (2019-nCoV) (SARS-CoV-2), UniProt P0DTD1); test: biochemical; format: biochemical
# SARS-CoV-2 = test: Cytopathic effect (CPE) suppression effect confirmation test using HEK293T/ACE2-TMPRSS2 cells; format: cell-based; conditions: Severe acute respiratory syndrome coronavirus 2, HEK-293T, 72 h
# [2] = 50% SARS-CoV-2 3CL protease inhibitory concentration, read-out: IC50
# [3] = read-out: EC50 (50% SARS-CoV-2 infected cell death inhibitory concentration), class, HEK293T/ACE2-TMPRSS2 cells, CPE suppression, CellTiter-Glo 2.0 after 3 days culture
# [4] = HEK293T/ACE2-TMPRSS2 cells, CPE suppression, CellTiter-Glo 2.0 after 3 days culture, read-out: EC50 (50% SARS-CoV-2 infected cell death inhibitory concentration), class
# [5] = read-out: EC50 (50% SARS-CoV-2 infected cell death inhibitory concentration), HEK293T/ACE2-TMPRSS2 cells, CPE suppression, CellTiter-Glo 2.0 after 3 days culture
Structure (SMILES),"IC50 [1, 2] [nM]",EC50 (SARS-CoV-2; [3]) [nM],EC50 (SARS-CoV-2; [4]) [nM],IC50 [1] [nM],EC50 (SARS-CoV-2; [5]) [nM]
Cc1cncc(-n2c(=O)c(Oc3cc(F)c(F)c(F)c3)c(-c3cc4ccccc4s3)n(CC#N)c2=O)c1 [Compound I-018],< 10,< 100,,,
Cc1cncc(-n2c(=O)c(Cc3cc(F)c(F)c(F)c3)c(-c3cc4ccccc4s3)n(CC#N)c2=O)c1 [Compound I-019],< 10,< 100,,,
Cc1cncc(-n2c(=O)c(-c3ccc(F)c(Cl)c3)c(-c3cc4ccccc4s3)n(CC#N)c2=O)c1 [Compound I-020],< 10,< 100,,,
N#CCn1c(N2CC3(CCCO3)C2)c(-c2ccc(F)c(Cl)c2)c(=O)n(-c2cncc(Cl)c2)c1=O [Compound I-021],< 10,< 100,,,
Cc1cncc(-n2c(=O)c(-c3ccc(F)c(Cl)c3)c(-c3cnc(C)nc3)n(CC#N)c2=O)c1 [Compound I-022],< 10,< 100,,,
Cc1cncc(-n2c(=O)c(-c3ccc(F)c(Cl)c3)c(N3Cc4ccccc4C3=O)n(CC#N)c2=O)c1 [Compound I-023],< 10,< 100,,,
Cc1cncc(-n2c(=O)c(-c3ccc(F)c(Cl)c3)c(N(C)Cc3ccccc3)n(CC#N)c2=O)c1 [Compound I-025],< 10,< 100,,,
Cc1cncc(-n2c(=O)c(-c3ccc(F)c(Cl)c3)c(-c3cc4ccccc4[nH]3)n(CC#N)c2=O)c1 [Compound I-026],< 10,< 100,,,
Cc1cncc(-n2c(=O)c(-c3ccc(F)c(Cl)c3)c(-c3ccc(C(=O)OC(C)(C)C)cc3)n(CC#N)c2=O)c1 [Compound I-027],> 100,100 to 1000,,,
Cc1cncc(-n2c(=O)c(-c3ccc(F)c(Cl)c3)c(Oc3cccc4[nH]ccc34)n(CC#N)c2=O)c1 [Compound I-028],< 10,< 100,,,
Cc1cncc(-n2c(=O)c(-c3ccc(F)c(Cl)c3)c(Oc3cccc4ccccc34)n(CC#N)c2=O)c1 [Compound I-029],< 10,< 100,,,
Cc1cncc(-n2c(=O)c(-c3ccc(F)c(Cl)c3)c(Oc3ccc(F)cc3Cl)n(CC#N)c2=O)c1 [Compound I-030],< 10,< 100,,,
Cc1cncc(-n2c(=O)c(Cc3cc(F)c(F)c(F)c3)c(-c3ccc(C(F)(F)F)c(Cl)c3)n(CC#N)c2=O)c1 [Compound I-031],< 10,< 100,,,
Cc1cc(-n2c(=O)c(-c3cc(F)c(F)c(Cl)c3)c(N3CC4(CCOCC4)C3)n(CC#N)c2=O)cc(=O)[nH]1 [Compound I-032],< 10,100 to 1000,,,
Cc1cc(-n2c(=O)c(-c3cc(F)c(F)c(Cl)c3)c(N3CC4(C3)CC(F)(F)C4)n(CC#N)c2=O)cc(=O)[nH]1 [Compound I-033],< 10,100 to 1000,,,
Cc1cc(-n2c(=O)c(-c3cc(F)c(F)c(Cl)c3)c(N3CCC(C(F)(F)F)CC3)n(CC#N)c2=O)cc(=O)[nH]1 [Compound I-034],10 to 100,,< 100,,
Cc1cnnc(-n2c(=O)c(Cc3cc(F)c(F)c(F)c3)c(N3C[C@H]4C[C@@H](C3)O4)n(CC#N)c2=O)c1 [Compound I-035],> 100,100 to 1000,,,
Cc1cnnc(-n2c(=O)c(Cc3cc(F)c(F)c(F)c3)c(N3CC4(CCOC4)C3)n(CC#N)c2=O)c1 [Compound I-036],> 100,100 to 1000,,,
N#CCn1c(N2CC3(CCOC3)C2)c(Cc2cc(F)c(F)c(F)c2)c(=O)n(-c2cnc3ccccn23)c1=O [Compound I-037],10 to 100,,100 to 1000,,
N#CCn1c(N2CC3CCC(CC3)C2)c(Cc2cc(F)c(F)c(F)c2)c(=O)n(-c2cnc3ccccn23)c1=O [Compound I-038],,< 100,,10 to 100,
Cc1cnnc(-n2c(=O)c(Cc3cc(F)c(F)c(F)c3)c(N3Cc4ccccc4C3)n(CC#N)c2=O)c1 [Compound I-039],< 10,< 100,,,

Structure (SMILES),"IC50 [1, 2] [nM]",EC50 (SARS-CoV-2; [3]) [nM],EC50 (SARS-CoV-2; [4]) [nM],IC50 [1] [nM],EC50 (SARS-CoV-2; [5]) [nM]
N#CCn1c(N2Cc3ccccc3C2)c(Cc2cc(F)c(F)c(F)c2)c(=O)n(-c2cnc3ccccn23)c1=O [Compound I-040],< 10,< 100,,,
CCCOc1cc(Cl)cc(-c2c(N3Cc4ccccc4C3)n(CC#N)c(=O)n(-c3cncc(C)c3)c2=O)c1 [Compound I-041],< 10,< 100,,,
Cc1cncc(-n2c(=O)c(-c3cccc(Cl)c3)c(N3Cc4ccccc4C3)n(CC#N)c2=O)c1 [Compound I-042],< 10,< 100,,,
N#CCn1c(N2CC3(CCOC3)C2)c(-c2ccc(F)c(Cl)c2)c(=O)n(-c2cnc3ccccn23)c1=O [Compound I-043],10 to 100,,100 to 1000,,
Cc1cncc(-n2c(=O)c(-c3ccc(F)c(Cl)c3)c(N3CCC4(CCNC4=O)CC3)n(CC#N)c2=O)c1 [Compound I-044],< 10,100 to 1000,,,
Cc1cncc(-n2c(=O)c(-c3ccc(F)c(Cl)c3)c(N3CC4(CCOC4)C3)n(CC#N)c2=O)c1 [Compound I-045],< 10,< 100,,,
Cc1cncc(-n2c(=O)c(Cc3cc(F)c(F)c(F)c3)c(/C=C/CO)n(CC#N)c2=O)c1 [Compound I-047],> 100,100 to 1000,,,
Cc1cncc(-n2c(=O)c(Cc3cc(F)c(F)c(F)c3)c(-c3ccc(C)c(C)c3)n(C3(C#N)CC3)c2=O)c1 [Compound I-049],10 to 100,,100 to 1000,,
Cc1cncc(-n2c(=O)c(Cc3cc(F)c(F)c(F)c3)c(CCCO)n(CC#N)c2=O)c1 [Compound I-052],10 to 100,,< 100,,
N#CCn1c(N2Cc3cn[nH]c3C2)c(Cc2cc(F)c(F)c(F)c2)c(=O)n(-c2cc[nH]c(=O)c2)c1=O [Compound I-053],32,,,,2610
N#CCn1c(Cl)c(-c2ccc(F)c(Cl)c2)c(=O)n(-c2cncc(Cl)c2)c1=O [Compound I-055],10 to 100,,100 to 1000,,
Cc1ccc(-c2c(Cc3cc(F)c(F)c(F)c3)c(=O)n(-c3cncc(Cl)c3)c(=O)n2CC#N)cc1C [Compound I-058],< 10,< 100,,,
N#CCn1c(N2CC3(CCOC3)C2)c(Cc2cc(F)c(F)c(F)c2)c(=O)n(-c2cncc(Cl)c2)c1=O [Compound I-059],< 10,< 100,,,
Cc1cncc(-n2c(=O)c(Cc3cc(F)c(F)c(F)c3)c(-c3ccc(C)c(C)c3)n(CC#N)c2=O)c1 [Compound I-060],4.7,,,,19
N#CCn1c(N2Cc3cn[nH]c3C2)c(Cc2cc(F)c(F)c(F)c2)c(=O)n(-c2cncc(Cl)c2)c1=O [Compound I-064],< 10,< 100,,,
Cc1cncc(-n2c(=O)c(Cc3cc(F)c(F)c(F)c3)c(-c3ccc(C)c(C)c3)n(C(C)(C)C#N)c2=O)c1 [Compound I-065],< 10,< 100,,,
Cc1cncc(-n2c(=O)c(-c3ccc(F)c(Cl)c3)c(-c3ccc(C(F)(F)F)c(Cl)c3)n(CC#N)c2=O)c1 [Compound I-066],< 10,< 100,,,
N#CCn1c(N2CCC3(CC2)CNC(=O)O3)c(-c2ccc(F)c(Cl)c2)c(=O)n(-c2cncc(Cl)c2)c1=O [Compound I-067],< 10,100 to 1000,,,
CN1CCN(c2c(-c3ccc(F)c(Cl)c3)c(=O)n(-c3cncc(Cl)c3)c(=O)n2CC#N)CC1=O [Compound I-068],< 10,< 100,,,
N#CCn1c(N2CCC(C(F)(F)F)CC2)c(-c2ccc(F)c(Cl)c2)c(=O)n(-c2cncc(Cl)c2)c1=O [Compound I-069],< 10,< 100,,,
